Data from patent publication US20040071768A1, “Compositions and methods for treating cancer” (Inex Pharmaceuticals Corporation, priority 1999, published 2004).
Where two headings read alike, the source gives them in different places.

Legend:
[1] = Maximum tolerable dose (MTD) of free and liposomal vinorelbine; type: in vivo, nude and ICR mice
Experimental: Single and multiple (q7dx3) dose MTD studies were performed in tumor-bearing and non-tumor bearing NCr nu/nu mice, as well as healthy, outbred ICR mice.

[2] = system: LX-1 small cell lung xenografts; assay: Single dose anti-tumor activity, LX-1 small cell lung xenograft; type: in vivo
Experimental: Female NCr nude mice were injected intravenously via the lateral tail vein on day 11 post-tumor-implantation with saline (♦), NVB at 25.5 mg/kg (◯), or NVB-TCS at 15.0 mg/kg (●) and 11.0 mg/kg (▪) at a drug-to-lipid ratio of 0.3:1 (w/w). The arrow on the x-axis denotes the day of drug administration. Data points represent mean±SEM (n=7).
(§1) Vinorelbine is used clinically in the treatment of advanced NSCLC and metastatic breast cancer.
(§2) Tumor models investigated included RXF393 (renal), MX-1 (breast), LX-1 (small cell lung cancer), PC-3 (prostate), and HT29 (colon). These models were known to be sensitive to vinorelbine. Tumor fragments were implanted subcutaneously in the flank of NCr nu/nu mice. […] Animal weights and tumor size were determined twice weekly.

HT29 colon xenografts [3] = assay: Single dose anti-tumor activity, HT29 colon xenograft; type: in vivo; settings: HT-29
Experimental: Female NCr nude mice were injected intravenously via the lateral tail vein on day 12 post-tumor-implantation with saline (♦), NVB at 30.0 mg/kg (◯) and 25.5 mg/kg (□), or NVB-TCS at 15.0 mg/kg (●) and 11.0 mg/kg (▪) at a drug-to-lipid ratio of 0.3:1 (w/w). The arrow on the x-axis denotes the day of drug administration. Data points represent mean±SEM (n=7). […]
as §2

PC3 prostate xenografts = assay: Single dose anti-tumor activity, PC3 prostate xenograft; type: in vivo; settings: PC-3
Experimental: Male NCr nude mice were injected intravenously via the lateral tail vein on day 9 post-tumor-implantation with saline (♦), NVB at 45.0 mg/kg (◯) and 34.0 mg/kg (□), or NVB-TCS at 15.0 mg/kg (●) and 11.0 mg/kg (▪) at a drug-to-lipid ratio of 0.3:1 (w/w). The arrow on the x-axis denotes the day of drug administration. Data points represent mean±SEM (n=10).
as §1, §2

[4] = system: NCl H460 non small cell lung xenografts; assay: Multiple dose (q7dx3) anti-tumor activity, NCl H460 non small cell lung xenograft
Experimental: Female NCr nude mice were injected intravenously (q7dx3, beginning day 7) via the lateral tail vein. […] Mitomycin C (⋄) was prepared in saline and injected iv (q4dx3) at a dose of 3 mg/kg/dose. Drug-to-lipid ratio was 0.3/1 (w/w). Data points represent median tumor volume (n=6).
(§3) The anti-tumor activity of multiple (q7d3) dose schedules of liposomal vinorelbine was evaluated in several human xenograft tumor models. The goal of this series of studies was to identify the benefits of encapsulation by evaluating a series of doses and determining the therapeutic index in several xenograft models. Models were selected based on the following criteria: (1) activity in the single dose studies, (2) a comprehensive literature review of vinca alkaloid efficacy, (3) a desire to include at least 2-3 models that represent the clinical use of vinorelbine, and (4) a desire to include models with a range of sensitivity to vinorelbine so that improvements resulting from the use of the liposome formulation might be identified. Based on these criteria, MX-1 and MDA-MB-435 breast models, the NCl-H460 NSCLC model and the HT-29 and DLD-1 colon models were chosen.
(§4) Therapeutic index (TI) is a parameter that quantifies the “safety factor” of a particular therapy. TI is a ratio of a toxicity parameter and a biological activity parameter. Therefore, a higher ratio represents a greater potential margin of safety. For these studies, TI is defined as follows: […]
(§5) The minimal effective dose (MED) was set according to NCl activity criteria as the dose resulting in an optimal % T/C of 40. This information was derived from Table 7.

HT29 colon xenografts [5] = assay: Multiple dose (q7dx3) anti-tumor activity, HT29 colon xenograft; settings: HT-29; for TF (tumor free animals at the end of study): n=6
Experimental: Female NCr nude mice were injected intravenously (q7dx3) via the lateral tail vein on days indicated by an asterisk (*). […] Drug-to-lipid ratio was 0.3/1 (w/w). Data points represent median tumor volume (n=6).
as §3, §4, §5

[6] = mice; cited from earlier work

CCC1=C[C@@H]2CN(C1)Cc1c([nH]c3ccccc13)[C@@](C(=O)OC)(c1cc3c(cc1OC)N(C)[C@H]1[C@@](O)(C(=O)OC)[C@H](OC(C)=O)[C@]4(CC)C=CCN5CC[C@]31[C@@H]54)C2 [VRL, 5′-noranhydrovinblastine]
MTD ([1]; NCr nu/nu and ICR, mouse, in vivo, intravenous, q7dx3 dose schedule, estimated, read-out: maximum tolerated dose (MTD)): 25 to 30 mg/kg | MTD ([1]; NCr nu/nu and ICR, mouse, in vivo, single dose, estimated, read-out: maximum tolerated dose (MTD)): 30 mg/kg | MTD ([1]; given intravenously on a q7dx3 schedule): 27.5 mg/kg/dose | MTD used in the calculation of therapeutic index (TI) ([1]; q7dx3, derived from Table 5): 27.5 mg/kg | % T/C (optimal % T/C following final treatment) ([2]; single i.v. dose 25.5 mg/kg): 23% | DRD (drug related deaths) ([2]; single i.v. dose 25.5 mg/kg): 0/6 | NCI Score ([2]; single i.v. dose 25.5 mg/kg): 1 | T-C (tumor growth delay to 1000 mm^3) ([2]; single i.v. dose 25.5 mg/kg): 7 | TF (tumor free animals at the end of study) ([2]; single i.v. dose 25.5 mg/kg): 0/6 | % T/C (optimal % T/C following final treatment) ([2]; single i.v. dose 34 mg/kg): Toxic | DRD (drug related deaths) ([2]; single i.v. dose 34 mg/kg): 7/7 | % T/C (optimal % T/C following final treatment) ([2]; single i.v. dose 45 mg/kg): Toxic | DRD (drug related deaths) ([2]; single i.v. dose 45 mg/kg): 7/7 | % T/C (optimal % T/C following final treatment) (HT29 colon xenografts [3]; single i.v. dose 25.5 mg/kg): 35% | DRD (drug related deaths) (HT29 colon xenografts [3]; single i.v. dose 25.5 mg/kg): 0/7 | MWL (maximum mean weight loss per treatment group) (HT29 colon xenografts [3]; single i.v. dose 25.5 mg/kg): −9.8 | NCI Score (HT29 colon xenografts [3]; single i.v. dose 25.5 mg/kg): 1 | T-C (tumor growth delay to 1000 mm^3) (HT29 colon xenografts [3]; single i.v. dose 25.5 mg/kg): 12 | TF (tumor free animals at the end of study) (HT29 colon xenografts [3]; single i.v. dose 25.5 mg/kg): 1/7 | % T/C (optimal % T/C following final treatment) (HT29 colon xenografts [3]; single i.v. dose 30 mg/kg): 31% | DRD (drug related deaths) (HT29 colon xenografts [3]; single i.v. dose 30 mg/kg): 0/7 | MWL (maximum mean weight loss per treatment group) (HT29 colon xenografts [3]; single i.v. dose 30 mg/kg): −9.3 | NCI Score (HT29 colon xenografts [3]; single i.v. dose 30 mg/kg): 1 | T-C (tumor growth delay to 1000 mm^3) (HT29 colon xenografts [3]; single i.v. dose 30 mg/kg): 9 | TF (tumor free animals at the end of study) (HT29 colon xenografts [3]; single i.v. dose 30 mg/kg): 1/7 | % T/C (optimal % T/C following final treatment) (PC3 prostate xenografts; single i.v. dose 34 mg/kg): −3% | DRD (drug related deaths) (PC3 prostate xenografts; single i.v. dose 34 mg/kg): 2/10 | MWL (maximum mean weight loss per treatment group) (PC3 prostate xenografts; single i.v. dose 34 mg/kg): −18.7 | NCI Score (PC3 prostate xenografts; single i.v. dose 34 mg/kg): 2 | T-C (tumor growth delay to 1000 mm^3) (PC3 prostate xenografts; single i.v. dose 34 mg/kg): 34 | TF (tumor free animals at the end of study) (PC3 prostate xenografts; single i.v. dose 34 mg/kg): 1/8 | % T/C (optimal % T/C following final treatment) (PC3 prostate xenografts; single i.v. dose 45 mg/kg): Toxic | DRD (drug related deaths) (PC3 prostate xenografts; single i.v. dose 45 mg/kg): 5/10 | MWL (maximum mean weight loss per treatment group) (PC3 prostate xenografts; single i.v. dose 45 mg/kg): −25.4 | TF (tumor free animals at the end of study) (PC3 prostate xenografts; single i.v. dose 45 mg/kg): 4/5 | % T/C (optimal % T/C following final treatment) ([4]; 5 mg/kg i.v. q7dx3): 63% | DRD (drug related deaths, n = 6) ([4]; 5 mg/kg i.v. q7dx3): 0 | NCI Score ([4]; 5 mg/kg i.v. q7dx3): 0 | T-C (tumor growth delay to 1000 mm^3) ([4]; 5 mg/kg i.v. q7dx3): 2.8 | TF (tumor free animals at the end of study) ([4]; 5 mg/kg i.v. q7dx3, n=6): 0 | % T/C (optimal % T/C following final treatment) ([4]; 10 mg/kg i.v. q7dx3): 45% | DRD (drug related deaths, n = 6) ([4]; 10 mg/kg i.v. q7dx3): 0 | NCI Score ([4]; 10 mg/kg i.v. q7dx3): 0 | T-C (tumor growth delay to 1000 mm^3) ([4]; 10 mg/kg i.v. q7dx3): 6.2 | TF (tumor free animals at the end of study) ([4]; 10 mg/kg i.v. q7dx3, n=6): 0 | % T/C (optimal % T/C following final treatment) ([4]; 20 mg/kg i.v. q7dx3): 30% | DRD (drug related deaths, n = 6) ([4]; 20 mg/kg i.v. q7dx3): 0 | NCI Score ([4]; 20 mg/kg i.v. q7dx3): 1 | T-C (tumor growth delay to 1000 mm^3) ([4]; 20 mg/kg i.v. q7dx3): 9.1 | TF (tumor free animals at the end of study) ([4]; 20 mg/kg i.v. q7dx3, n=6): 0 | % T/C (optimal % T/C following final treatment) ([4]; 30 mg/kg i.v. q7dx3): 10% | DRD (drug related deaths, n = 6) ([4]; 30 mg/kg i.v. q7dx3): 2 | NCI Score ([4]; 30 mg/kg i.v. q7dx3): 1 | T-C (tumor growth delay to 1000 mm^3) ([4]; 30 mg/kg i.v. q7dx3): 19.1 | TF (tumor free animals at the end of study) ([4]; 30 mg/kg i.v. q7dx3, n=6): 0 | % T/C (optimal % T/C following final treatment) (HT29 colon xenografts [5]; 5 mg/kg i.v. q7dx3): 67% | DRD (drug related deaths, n = 6) (HT29 colon xenografts [5]; 5 mg/kg i.v. q7dx3): 0 | NCI Score (HT29 colon xenografts [5]; 5 mg/kg i.v. q7dx3): 0 | T-C (tumor growth delay to 1000 mm^3) (HT29 colon xenografts [5]; 5 mg/kg i.v. q7dx3): 1.32 | TF (tumor free animals at the end of study) (HT29 colon xenografts [5]; 5 mg/kg i.v. q7dx3): 0 | % T/C (optimal % T/C following final treatment) (HT29 colon xenografts [5]; 10 mg/kg i.v. q7dx3): 5% | DRD (drug related deaths, n = 6) (HT29 colon xenografts [5]; 10 mg/kg i.v. q7dx3): 0 | NCI Score (HT29 colon xenografts [5]; 10 mg/kg i.v. q7dx3): 1 | T-C (tumor growth delay to 1000 mm^3) (HT29 colon xenografts [5]; 10 mg/kg i.v. q7dx3): 11.9 | TF (tumor free animals at the end of study) (HT29 colon xenografts [5]; 10 mg/kg i.v. q7dx3): 0 | % T/C (optimal % T/C following final treatment) (HT29 colon xenografts [5]; 20 mg/kg i.v. q7dx3): −65% | DRD (drug related deaths, n = 6) (HT29 colon xenografts [5]; 20 mg/kg i.v. q7dx3): 0 | NCI Score (HT29 colon xenografts [5]; 20 mg/kg i.v. q7dx3): 3 | T-C (tumor growth delay to 1000 mm^3) (HT29 colon xenografts [5]; 20 mg/kg i.v. q7dx3): 29.3 | TF (tumor free animals at the end of study) (HT29 colon xenografts [5]; 20 mg/kg i.v. q7dx3): 1 | published LD50 [6]: 34 mg/kg
